From the supplement of paper PMC10307832

Columns and labels:
Assay in all cases: relative viability (nuclei count vs DMSO), 5 days (fraction); higher = more cells survive
[1] = compound: CC(C)(C)c1cc(NC(=O)Nc2ccc(-c3cn4c(n3)sc3cc(OCCN5CCOCC5)ccc34)cc2)no1 [Quizartinib] + CC(=O)Nc1cccc(-n2c(=O)n(C3CC3)c(=O)c3c(Nc4ccc(I)cc4F)n(C)c(=O)c(C)c32)c1 [Trametinib] (partner 0.02 µM)
Outline: (§1)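 Lung cancer cell lines in 1536-well plates were dosed by pin tool the day after seeding, either with one drug alone or with a fixed anchor-drug dose plus five library-drug doses (not always all listed) in √10 steps. After 5 days, cells were fixed and their nuclei stained in one step (final 0.05% Triton X-100, 1% formaldehyde, 1 ug/ml Hoechst), then counted on 4× images. Relative viability is the nuclei count in treated wells divided by that in vehicle wells. Values are medians of duplicate plates.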

[2] = compound: CC(C)(C)c1cc(NC(=O)Nc2ccc(-c3cn4c(n3)sc3cc(OCCN5CCOCC5)ccc34)cc2)no1 [Quizartinib] + CC(=O)c1c(C)c2cnc(Nc3ccc(N4CCNCC4)cn3)nc2n(C2CCCC2)c1=O [Palbociclib] (partner 0.5 µM)
Outline: as §1

[3] = compound: CC(C)(C)c1cc(NC(=O)Nc2ccc(-c3cn4c(n3)sc3cc(OCCN5CCOCC5)ccc34)cc2)no1 [Quizartinib] + CC1(C)CCC(c2ccc(Cl)cc2)=C(CN2CCN(c3ccc(C(=O)NS(=O)(=O)c4ccc(N[C@H](CCN5CCOCC5)CSc5ccccc5)c(S(=O)(=O)C(F)(F)F)c4)cc3)CC2)C1 [Navitoclax] (partner 0.5 µM)
Outline: as §1

[4] = compound: CC(C)(C)c1cc(NC(=O)Nc2ccc(-c3cn4c(n3)sc3cc(OCCN5CCOCC5)ccc34)cc2)no1 [Quizartinib] + C[C@]1(O)C[C@@H](c2nc(-c3ccc4ccc(-c5ccccc5)nc4c3)c3c(N)nccn32)C1 [Linsitinib] (partner 1 µM)
Outline: as §1

Row | Cell Line | relative viability ([1]; first compound 0.001 µM) | relative viability ([1]; first compound 0.003162 µM) | relative viability ([1]; first compound 0.01 µM) | relative viability ([1]; first compound 0.03162 µM) | relative viability ([1]; first compound 0.1 µM) | relative viability ([2]; first compound 0.001 µM) | relative viability ([2]; first compound 0.003162 µM) | relative viability ([2]; first compound 0.01 µM) | relative viability ([2]; first compound 0.03162 µM) | relative viability ([2]; first compound 0.1 µM) | relative viability ([3]; first compound 0.001 µM) | relative viability ([3]; first compound 0.01 µM) | relative viability ([3]; first compound 0.03162 µM) | relative viability ([3]; first compound 0.1 µM) | relative viability ([4]; first compound 0.001 µM) | relative viability ([4]; first compound 0.01 µM) | relative viability ([4]; first compound 0.03162 µM) | relative viability ([4]; first compound 0.1 µM) | relative viability ([3]; first compound 0.003162 µM) | relative viability ([4]; first compound 0.003162 µM)
1 | NCI-H727 | 0.424 | 0.355 | 0.366 | 0.397 | 0.429 | 0.677 | 0.684 | 0.625 | 0.673 | 0.765 | 0.408 | 0.611 | 0.476 | 0.357 | 0.164 | 0.387 | 0.309 | 0.174 |  | 
2 | NCI-H838 | 0.516 | 0.515 | 0.466 | 0.514 | 0.367 | 0.212 | 0.244 | 0.205 | 0.217 | 0.179 | 1.09 | 1.08 | 1.06 | 0.815 | 0.919 | 0.991 | 0.963 | 0.576 | 1.06 | 0.912
3 | NCI-H1355 | 0.411 | 0.43 | 0.444 | 0.423 | 0.357 | 0.379 | 0.378 | 0.415 | 0.36 | 0.363 | 0.868 | 0.912 | 1 | 1 | 0.804 | 0.827 | 0.799 | 0.842 | 0.921 | 0.817
4 | NCI-H1395 | 0.842 | 0.924 | 0.979 | 1.03 | 1.13 | 0.549 | 0.573 | 0.668 | 0.591 | 0.598 | 1.05 | 1.14 | 1.59 | 1.36 | 1.06 | 0.985 | 1.04 | 1.22 | 1.07 | 1.37
5 | NCI-H1437 | 0.458 | 0.482 | 0.492 | 0.49 | 0.346 | 0.298 | 0.288 | 0.32 | 0.299 | 0.261 | 0.954 | 1.04 | 0.904 | 0.8 | 0.954 | 1.01 | 0.898 | 0.706 | 0.994 | 0.897
6 | NCI-H1651 | 0.715 | 0.785 | 0.898 | 0.797 | 0.859 | 0.456 | 0.479 | 0.54 | 0.517 | 0.566 | 0.848 | 0.963 | 0.845 | 0.995 | 0.858 | 1.06 | 0.727 | 0.93 | 0.895 | 0.946
7 | NCI-H1666 | 0.856 | 0.746 | 0.888 | 0.79 | 0.772 | 0.618 | 0.66 | 0.683 | 0.638 | 0.637 | 0.773 | 1.06 | 0.743 | 0.866 | 0.771 | 0.868 | 0.631 | 0.865 | 0.949 | 0.753
8 | NCI-H1734 | 0.604 | 0.64 | 0.78 | 0.571 | 0.698 | 0.277 | 0.338 | 0.349 | 0.341 | 0.347 | 0.741 | 0.888 | 0.788 | 0.849 | 0.752 | 0.901 | 0.855 | 0.842 | 0.794 | 0.871
